Read-outs that look alike come from different tables or passages of the source.

Usually CC50 stands for the concentration that lowers cell viability or growth by half. Low readings indicate greater toxicity to the cells, high ones lower toxicity to the cells. In general, inhibition refers to how much of the control response was suppressed.

A short description of series [1]: Test B: Cytotoxicity Assay. In kind it is cell-based. Conditions: human, uninfected MT-4 cells, CellTiter-Glo. The method, then: Test B: Cytotoxicity Assay Compound cytotoxicity and the corresponding CC50 values was determined using the same protocol as described in the antiviral assay (Test A) except that uninfected cells were used.
On the technique in general: Cellular ATP, detected with luciferase, serves as a proxy for viable cell number.

In another series the test system is HIV-IIIb. In words: Test A: Antiviral Assay in MT4 Cells. It is filed as cell-based, HIV-1. The settings on record: read-out: % inhibition at 0.2 μM (percent inhibition of virus-induced cell killing). The gist of the method:
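MT-4 cells were preinfected with HIV-IIIb […]. Cell viability, as protection from viral cytopathic effect, was read by CellTiter-Glo chemiluminescence.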

The mark [2] stands for this setting: Human immunodeficiency virus 1, MT4, 120 h, 0.2 μM drug concentration, MT-4 cells infected with HIV-IIIb, 5 days, values normalized to 100%, average over time.
Setting [3] is: Human immunodeficiency virus 1, IIIB, MT4, 120 h.

In series [1], `Cn1cnc(C#Cc2ccc(-c3ccc(Cl)c4c(NS(C)(=O)=O)nn(C)c34)c([C@H](Cc3cc(F)cc(F)c3)NC(=O)Cn3nc(C(F)F)c4c3C(F)(F)[C@@H]3C[C@H]43)n2)c1` [Compound 78, N—((S)-1-(3-(4-chloro-1-methyl-3-(methylsulfonamido)-1H-indazol-7-yl)-6-((1-methyl-1H-imidazol-4-yl)ethynyl)pyridin-2-yl)-2-(3,5-difluorophenyl)ethyl)-2-((3bS,4aR)-3-(difluoromethyl)-5,5-difluoro-3b,4,4a,5-tetrahydro-1H-cyclopropa[3,4]cyclopenta[1,2-c]pyrazol-1-yl)acetamide] displayed a cytotoxic concentration (CC50) at 5 days above 36.6 µM. For the same compound, in the series with HIV-IIIb (setting [2]), the inhibition at 0.2 µM came to 87%.

Regarding `Cn1nc(NS(C)(=O)=O)c2c(Cl)ccc(-c3ccc(C#CC(C)(C)n4ccnc4)nc3[C@H](Cc3cc(F)cc(F)c3)NC(=O)Cn3nc(C(F)(F)F)c4c3C(F)(F)[C@@H]3C[C@H]43)c21` [Compound 79B, N—((S)-1-(6-(3-(1H-imidazol-1-yl)-3-methylbut-1-yn-1-yl)-3-(4-chloro-1-methyl-3-(methylsulfonamido)-1H-indazol-7-yl)pyridin-2-yl)-2-(3,5-difluorophenyl)ethyl)-2-((3bS,4aR)-5,5-difluoro-3-(trifluoromethyl)-3b,4,4a,5-tetrahydro-1H-cyclopropa[3,4]cyclopenta[1,2-c]pyrazol-1-yl)acetamide], the CC50 at 5 days in series [1] came out at 11.5 µM. For the same compound, the inhibition at 0.2 µM in the series with HIV-IIIb (setting [2]) stood at 93%.

The compound `Cn1nc(NS(C)(=O)=O)c2c(Cl)ccc(-c3ccc(C#CC(C)(C)n4ccnc4)nc3[C@H](Cc3cc(F)cc(F)c3)NC(=O)Cn3nc(C(F)F)c4c3C(F)(F)[C@@H]3C[C@H]43)c21` [Compound 80, N—((S)-1-(6-(3-(1H-imidazol-1-yl)-3-methylbut-1-yn-1-yl)-3-(4-chloro-1-methyl-3-(methylsulfonamido)-1H-indazol-7-yl)pyridin-2-yl)-2-(3,5-difluorophenyl)ethyl)-2-((3bS,4aR)-3-(difluoromethyl)-5,5-difluoro-3b,4,4a,5-tetrahydro-1H-cyclopropa[3,4]cyclopenta[1,2-c]pyrazol-1-yl)acetamide] came in with a CC50 at 5 days in series [1] of 20.9 µM. Also, the inhibition at 0.2 µM in the series with HIV-IIIb (setting [2]) is 89%.

Turning to `Cn1nc(NS(C)(=O)=O)c2c(Cl)ccc(-c3ccc(C#CC4(C)OCCn5ccnc54)nc3[C@H](Cc3cc(F)cc(F)c3)NC(=O)Cn3nc(C(F)(F)F)c4c3C(F)(F)[C@@H]3C[C@H]43)c21` (some centres unmarked) [Compound 81E], in series [1], the CC50 at 5 days is above 57 µM. For the same compound, the inhibition at 0.2 µM with HIV-IIIb (setting [3]) was determined as 87%.

The compound `Cn1nc(NS(C)(=O)=O)c2c(Cl)ccc(-c3ccc(C#CC4(C)OCCn5ccnc54)nc3[C@H](Cc3cc(F)cc(F)c3)NC(=O)Cn3nc(C(F)F)c4c3C(F)(F)[C@@H]3C[C@H]43)c21` (stereo partly drawn) [Compound 82, N-((1S)-1-(3-(4-chloro-1-methyl-3-(methylsulfonamido)-1H-indazol-7-yl)-6-((8-methyl-6,8-dihydro-5H-imidazo[2,1-c][1,4]oxazin-8-yl)ethynyl)pyridin-2-yl)-2-(3,5-difluorophenyl)ethyl)-2-((3bS,4aR)-3-(difluoromethyl)-5,5-difluoro-3b,4,4a,5-tetrahydro-1H-cyclopropa[3,4]cyclopenta[1,2-c]pyrazol-1-yl)acetamide] gave a CC50 at 5 days in series [1] of 29.6 µM. Also, the inhibition at 0.2 µM in the series with HIV-IIIb (setting [2]) turned out to be 90%.

Compound `Cn1nc(NS(C)(=O)=O)c2c(Cl)ccc(-c3ccc(C#C[C@]4(C)CNCCO4)nc3[C@H](Cc3cc(F)cc(F)c3)NC(=O)Cn3nc(C(F)(F)F)c4c3C(F)(F)[C@@H]3C[C@H]43)c21` [Compound 83G, N—((S)-1-(3-(4-chloro-1-methyl-3-(methylsulfonamido)-1H-indazol-7-yl)-6-(((R)-2-methylmorpholin-2-yl)ethynyl)pyridin-2-yl)-2-(3,5-difluorophenyl)ethyl)-2-((3bS,4aR)-5,5-difluoro-3-(trifluoromethyl)-3b,4,4a,5-tetrahydro-1H-cyclopropa[3,4]cyclopenta[1,2-c]pyrazol-1-yl)acetamide] returned a half-maximal cytotoxic concentration (CC50) at 5 days in series [1] of 6.57 µM. In the series on HIV-IIIb (setting [2]), the inhibition at 0.2 µM amounted to 90%.

`Cn1nc(NS(C)(=O)=O)c2c(Cl)ccc(-c3ccc(C#C[C@]4(C)CNCCO4)nc3[C@H](Cc3cc(F)cc(F)c3)NC(=O)Cn3nc(C(F)F)c4c3C(F)(F)[C@@H]3C[C@H]43)c21` [Compound 84, N—((S)-1-(3-(4-chloro-1-methyl-3-(methylsulfonamido)-1H-indazol-7-yl)-6-(((R)-2-methylmorpholin-2-yl)ethynyl)pyridin-2-yl)-2-(3,5-difluorophenyl)ethyl)-2-((3bS,4aR)-3-(difluoromethyl)-5,5-difluoro-3b,4,4a,5-tetrahydro-1H-cyclopropa[3,4]cyclopenta[1,2-c]pyrazol-1-yl)acetamide] yielded a CC50 at 5 days in series [1] of 6.9 µM. In the series with HIV-IIIb (setting [2]), the inhibition at 0.2 µM amounted to 88%.

`CCN1CCO[C@](C)(C#Cc2ccc(-c3ccc(Cl)c4c(NS(C)(=O)=O)nn(C)c34)c([C@H](Cc3cc(F)cc(F)c3)NC(=O)Cn3nc(C(F)F)c4c3C(F)(F)[C@@H]3C[C@H]43)n2)C1` [Compound 85, N—((S)-1-(3-(4-chloro-1-methyl-3-(methylsulfonamido)-1H-indazol-7-yl)-6-(((R)-4-ethyl-2-methylmorpholin-2-yl)ethynyl)pyridin-2-yl)-2-(3,5-difluorophenyl)ethyl)-2-((3bS,4aR)-3-(difluoromethyl)-5,5-difluoro-3b,4,4a,5-tetrahydro-1-cyclopropa[3,4]cyclopenta[1,2-c]pyrazol-1-yl)acetamide] yielded a CC50 at 5 days in series [1] of 28.6 µM. For the same compound, the inhibition at 0.2 µM with HIV-IIIb (setting [3]) is 100%.

With `CC(=O)N1CCO[C@](C)(C#Cc2ccc(-c3ccc(Cl)c4c(NS(C)(=O)=O)nn(C)c34)c([C@H](Cc3cc(F)cc(F)c3)NC(=O)Cn3nc(C(F)F)c4c3C(F)(F)[C@@H]3C[C@H]43)n2)C1` [Compound 86, N—((S)-1-(6-(((R)-4-acetyl-2-methylmorpholin-2-yl)ethynyl)-3-(4-chloro-1-methyl-3-(methylsulfonamido)-1H-indazol-7-yl)pyridin-2-yl)-2-(3,5-difluorophenyl)ethyl)-2-((3bS,4aR)-3-(difluoromethyl)-5,5-difluoro-3b,4,4a,5-tetrahydro-1H-cyclopropa[3,4]cyclopenta[1,2-c]pyrazol-1-yl)acetamide], the CC50 at 5 days in series [1] was found to be 21.4 µM. For the same compound, in the series on HIV-IIIb (setting [3]), the inhibition at 0.2 µM is 93%.

In turn, `CC(C)N1CCO[C@](C)(C#Cc2ccc(-c3ccc(Cl)c4c(NS(C)(=O)=O)nn(C)c34)c([C@H](Cc3cc(F)cc(F)c3)NC(=O)Cn3nc(C(F)F)c4c3C(F)(F)[C@@H]3C[C@H]43)n2)C1` [Compound 87, N—((S)-1-(3-(4-chloro-1-methyl-3-(methylsulfonamido)-1H-indazol-7-yl)-6-(((R)-4-isopropyl-2-methylmorpholin-2-yl)ethynyl)pyridin-2-yl)-2-(3,5-difluorophenyl)ethyl)-2-((3bS,4aR)-3-(difluoromethyl)-5,5-difluoro-3b,4,4a,5-tetrahydro-1H-cyclopropa[3,4]cyclopenta[1,2-c]pyrazol-1-yl)acetamide] registered a half-maximal cytotoxic concentration (CC50) at 5 days in series [1] of 19.5 µM. Moreover, the inhibition at 0.2 µM in the series with HIV-IIIb (setting [2]) worked out at 100%.

Values taken from patent publication US9873680B2 (Gilead Sciences, Inc., priority 2014, dated 2018).
